# Source: patent US12473284B2, “Small molecule inhibitors of ULK1” (Memorial Sloan Kettering Cancer Center, priority 2019, dated 2025)
# System: MiaCaPa-2 cancer cells
# Experiment: MiaCaPa-2 pancreatic ductal adenocarcinoma (PDAC) cell line xenograft mice model
# Format: in vivo
# Conditions: MSK-A170-PEAK2 10 mg/kg + trametinib 0.5 mg/kg, i.p., 6 days a week, 17 days, female athymic nude mice
# Description: FIG. 1 illustrates the final tumor weights for four groups on mice in a MiaCaPa-2 cell line xenograft mouse model, where “Control” group mice were treated 6 days a week, i.p., for 17 days with dosing vehicle; “ULK1i” group mice were treated 6 days a week, i.p., for 17 days with a compound of the present technology, 10 mg/kg; “MEKi” group mice were treated 6 days a week, i.p., for 17 days with MEK1 inhibitor trametinib, 0.5 mg/kg; “ULK1i+MEKi” group mice were treated 6 days a week, i.p., for 17 days with a combination of the compound of the present technology (10 mg/kg) and trametinib (0.5 mg/kg), according to the working examples.
# FIG. 2 provides the tumor volume over time for each group of the xenograft mouse model study that provided the data of FIG. 1, according to the working examples.
# Female athymic nude (Foxn1^nu) mice were implanted with 2×10^6 MiaCaPa-2 cancer cells per animal subcutaneously at the right flank. […] The tumor volume was measured on 1, 3, 5, 7, 9, 11, 13, 15, and 17. […]
row,SMILES,"tumor weight / tumor volume, combination with trametinib versus trametinib alone"
1,"C[C@@H](N)C1CCC(C(=O)Nc2ccnc3[nH]c(-c4ccccc4)cc23)CC1 (single isomer, unassigned) [MSK-A170-PEAK2]",significantly improved results

# Target: ULK1/Atg13 kinase complex (Homo sapiens (Human), UniProt O75385)
# Experiment: In vitro kinase assay (Kinase-Glo Plus luminescence, MBP 1-20 peptide substrate)
# Format: biochemical
# Conditions: recombinant His-tagged ULK1/Atg13, 75 min at room temperature; salt form as in Table 1
# Description: In vitro kinase assays were performed as described below:
# Recombinant His-tagged ULK1/Atg13 kinase complex was expressed in […] insect cells, and affinity-purified by Ni-NTA beads, aliquoted and stored at −80° C.
# Compounds were dissolved in DMSO to make 10 mM stock solution, aliquoted and stored at −80° C.
# 1× kinase buffer was prepared: 20 mM Tris-HCl, pH7.5, 100 mM NaCl, 5 mM MgCl2, 0.5 mg/ml BSA, 5 mM DTT, 0.1% Tween-20.
# For compound screening experiment, 1 μl of the 10 mM compound stock solution was added using P2.5 pipette into 99 μl 1×kinase buffer to make 100 μM working solution.
# For compound titration experiment, 100 μM compound solution was further diluted (with 1×kinase buffer containing 1% DMSO) in a series manner.
# 30 mM MBP (Myelin basic protein) 1-20 peptide (sequence: […]; SEQ ID NO: 1) was prepared in 1× kinase buffer.
# 500 μM ATP was prepared in 1× kinase buffer.
# Pre-incubation reactions were set up as shown in the Table below and pre-incubated for 10 min at room temperature.
# 4 μl of 500 μM ATP was added to the pre-incubation reaction (thus the final reaction volume is 20 μl) and incubated for 75 min at room temperature.
# 20 μl Kinase-Glo Plus (Promega) was added to the reaction (warmed to RT), mixed well and incubated at room temperature for 15 min.
# 20 μl reaction was pipetted into each well of a white 384-well plate.
# the 384-well plate was subjected to brief centrifugation, and luminescence was read in a plate reader.
# Calculated inhibition (%) was calculated as follows: […]
# Sequence of ULK1/Atg13 kinase complex (O75385 whole entry): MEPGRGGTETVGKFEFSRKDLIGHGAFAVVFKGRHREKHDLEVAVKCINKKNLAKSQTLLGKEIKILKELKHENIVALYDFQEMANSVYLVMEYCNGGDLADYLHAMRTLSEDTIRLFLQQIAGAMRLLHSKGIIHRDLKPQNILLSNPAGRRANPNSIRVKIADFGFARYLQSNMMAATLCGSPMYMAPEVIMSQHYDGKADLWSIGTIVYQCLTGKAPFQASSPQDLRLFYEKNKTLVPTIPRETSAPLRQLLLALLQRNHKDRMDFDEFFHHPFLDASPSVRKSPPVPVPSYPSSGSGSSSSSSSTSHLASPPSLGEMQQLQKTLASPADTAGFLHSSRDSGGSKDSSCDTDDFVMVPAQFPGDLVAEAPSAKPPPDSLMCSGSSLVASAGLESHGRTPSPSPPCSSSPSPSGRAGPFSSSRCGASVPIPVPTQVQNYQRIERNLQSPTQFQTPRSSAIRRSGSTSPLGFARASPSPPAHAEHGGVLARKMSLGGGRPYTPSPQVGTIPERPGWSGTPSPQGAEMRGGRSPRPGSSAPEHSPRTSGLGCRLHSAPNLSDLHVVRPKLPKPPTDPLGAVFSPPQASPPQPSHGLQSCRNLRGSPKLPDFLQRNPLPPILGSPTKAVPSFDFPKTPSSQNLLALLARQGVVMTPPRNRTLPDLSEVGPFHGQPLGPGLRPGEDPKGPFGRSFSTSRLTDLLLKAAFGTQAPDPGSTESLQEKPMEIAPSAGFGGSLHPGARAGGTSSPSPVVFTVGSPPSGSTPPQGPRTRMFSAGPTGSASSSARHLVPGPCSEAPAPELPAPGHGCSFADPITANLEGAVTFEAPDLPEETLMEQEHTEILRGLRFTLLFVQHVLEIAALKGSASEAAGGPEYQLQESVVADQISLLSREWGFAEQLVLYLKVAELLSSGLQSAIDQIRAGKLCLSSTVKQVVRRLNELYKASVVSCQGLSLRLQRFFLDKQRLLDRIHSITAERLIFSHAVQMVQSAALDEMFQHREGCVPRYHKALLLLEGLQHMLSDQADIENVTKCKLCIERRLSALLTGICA
# Sequence of ULK1/Atg13 kinase complex (O75143 whole entry partner): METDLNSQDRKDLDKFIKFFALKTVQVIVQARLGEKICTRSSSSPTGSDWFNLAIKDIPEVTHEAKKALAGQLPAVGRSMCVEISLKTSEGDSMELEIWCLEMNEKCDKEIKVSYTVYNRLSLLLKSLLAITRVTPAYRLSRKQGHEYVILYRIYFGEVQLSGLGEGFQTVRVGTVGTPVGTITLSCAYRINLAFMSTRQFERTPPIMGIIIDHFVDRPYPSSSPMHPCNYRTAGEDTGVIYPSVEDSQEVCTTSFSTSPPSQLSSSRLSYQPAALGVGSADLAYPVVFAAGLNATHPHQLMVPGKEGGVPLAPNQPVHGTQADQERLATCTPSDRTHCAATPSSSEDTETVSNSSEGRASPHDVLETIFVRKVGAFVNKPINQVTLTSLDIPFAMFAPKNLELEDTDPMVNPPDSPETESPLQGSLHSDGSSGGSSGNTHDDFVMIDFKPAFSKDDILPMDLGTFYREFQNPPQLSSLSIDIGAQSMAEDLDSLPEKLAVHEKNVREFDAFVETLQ
row,SMILES,IC50
1,"CC(N)C1CCC(C(=O)Nc2ccnc3[nH]c(-n4ccnc4)cc23)CC1 (stereo not shown) [MSK-A181, (1r,4r)-N-(2-(1H-imidazol-1-yl)-1H-pyrrolo[2,3-b]pyridin-4-yl)-4-(1-aminoethyl)cyclohexanecarboxamide]",515 nM
2,"CC(N)C1CCC(C(=O)Nc2ccnc3[nH]c(-c4ncc[nH]4)cc23)CC1 (stereo not shown) [MSK-A157, (1r,4r)-N-(2-(1H-imidazol-2-yl)-1H-pyrrolo[2,3-b]pyridin-4-yl)-4-(1-aminoethyl)cyclohexanecarboxamide]",73 nM
3,"CC(N)C1CCC(C(=O)Nc2ccnc3[nH]c(-n4cccn4)cc23)CC1 (stereo not shown) [MSK-A173, (1r,4r)-N-(2-(1H-pyrazol-1-yl)-1H-pyrrolo[2,3-b]pyridin-4-yl)-4-(1-aminoethyl)cyclohexanecarboxamide]",630 nM
4,CC(N)C1CCC(C(=O)Nc2ccnc3[nH]c(-c4ncccn4)cc23)CC1 (stereo not shown) [MSK-A180],2380 nM
5,"CC(N)C1CCC(C(=O)Nc2ccnc3[nH]c(-c4cccc(F)c4)cc23)CC1 (single isomer, unassigned) [MSK-A191_peak 2, (1r,4r)-4-(1-aminoethyl)-N-(2-(3-fluorophenyl)-1H-pyrrolo[2,3-b]pyridin-4-yl)cyclohexanecarboxamide]",59.1 nM
6,CC(N)C1CCC(C(=O)Nc2ccnc3[nH]c(-c4cccs4)cc23)CC1 (stereo not shown) [MSK-A177],54 nM
7,"C[C@@H](N)C1CCC(C(=O)Nc2ccnc3occc23)CC1 (stereo partly shown) [MSK-A091, (1r,4r)-4-(1-aminoethyl)-N-(furo[2,3-b]pyridin-4-yl)cyclohexanecarboxamide]",2200 nM
8,"CC(N)C1CCC(C(=O)Nc2ccnc3[nH]c(-c4ccsc4)cc23)CC1 (single isomer, unassigned) [MSK-A176-peak 1, (1r,4r)-4-(1-aminoethyl)-N-(2-(thiophen-3-yl)-1H-pyrrolo[2,3-b]pyridin-4-yl)cyclohexanecarboxamide]",56.2 nM
9,"CC(N)C1CCC(C(=O)Nc2ccnc3[nH]c(-c4cccc(F)c4)cc23)CC1 (single isomer, unassigned) [MSK-A191_peak 1, (1r,4r)-4-(1-aminoethyl)-N-(2-(3-fluorophenyl)-1H-pyrrolo[2,3-b]pyridin-4-yl)cyclohexanecarboxamide]",40.8 nM
10,"COC(=O)[C@H](N)[C@H]1CC[C@H](C(=O)Nc2ccnc3[nH]c(-c4ccccc4)cc23)CC1 [MSK-A183, (R)-methyl 2-amino-2-((1r,4R)-4-((2-phenyl-1H-pyrrolo[2,3-b]pyridin-4-yl)carbamoyl)cyclo-hexyl)acetate]",185 nM
11,CC(N)C1CCC(C(=O)Nc2ccnc3[nH]c(-c4cscn4)cc23)CC1 (stereo not shown) [MSK-A199],109 nM
12,CC(N)C1CCC(C(=O)Nc2ccnc3[nH]c(-c4ncco4)cc23)CC1 (stereo not shown) [MSK-A202],156 nM
13,"CC(N)C1CCC(C(=O)Nc2ccnc3[nH]c(-c4nccn4C)cc23)CC1 (stereo not shown) [MSK-A171, (1r,4r)-4-(1-aminoethyl)-N-(2-(1-methyl-1H-imidazol-2-yl)-1H-pyrrolo[2,3-b]pyridin-4-yl)cyclohexanecarboxamide]",1450 nM
14,"C[C@@H](N)C1CCC(C(=O)Nc2ccnc3[nH]c(-c4ccccn4)cc23)CC1 (stereo partly shown) [MSK-A172, (1r,4r)-4-(1-aminoethyl)-N-(2-(pyridin-2-yl)-1H-pyrrolo [2,3-b]pyridin-4-yl)cyclohexanecarboxamide]",110 nM
15,CC(N)C1CCC(C(=O)Nc2ccnc3[nH]c(-c4nccs4)cc23)CC1 (stereo not shown) [MSK-A178],47 nM

# More lines, now with the values ahead:
row,IC50,SMILES
1,18.9 nM,CC(N)C1CCC(C(=O)Cc2ccnc3[nH]c(-c4ccc(F)cc4)cc23)CC1 (stereo not shown) [MSK-A184]
2,5 nM,CC(N)C1CCC(C(=O)Nc2ccnc3[nH]c(-c4ccsc4)cc23)CC1 (stereo not shown) [MSK-A176]
3,20.2 nM,Cc1cccc(-c2cc3c(CC(=O)C4CCC(C(C)N)CC4)ccnc3[nH]2)c1 (stereo not shown) [MSK-A192]
4,18.3 nM,CC(N)C1CCC(C(=O)Cc2ccnc3[nH]c(-c4ccc(C#N)cc4)cc23)CC1 (stereo not shown) [MSK-A189]
5,26.3 nM,CC(N)C1CCC(C(=O)Cc2ccnc3[nH]c(-c4cccc(C5CC5)c4)cc23)CC1 (stereo not shown) [MSK-A193]
6,23.6 nM,"CC(N)C1CCC(C(=O)Nc2ccnc3[nH]c(-c4ccsc4)cc23)CC1 (single isomer, unassigned) [MSK-A176-peak 2, (1r,4r)-4-(1-aminoethyl)-N-(2-(thiophen-3-yl)-1H-pyrrolo[2,3-b]pyridin-4-yl)cyclohexanecarboxamide]"
7,18 nM,"C[C@@H](N)C1CCC(C(=O)Nc2ccnc3[nH]c(-c4ccccc4)cc23)CC1 (stereo partly shown) [MSK-A170, (1r,4r)-4-(1-aminoethyl)-N-(2-phenyl-1H-pyrrolo[2,3-b]pyridin-4-yl)cyclohexanecarboxamide]"
8,22.9 nM,"COC(=O)[C@@H](N)[C@H]1CC[C@H](C(=O)Nc2ccnc3[nH]c(-c4ccccc4)cc23)CC1 [MSK-A182, (S)-methyl 2-amino-2-((1r,4S)-4-((2-phenyl-1H-pyrrolo[2,3-b]pyridin-4-yl)carbamoyl)cyclo-hexyl)acetate]"
9,23.8 nM,CC(N)C1CCC(C(=O)Nc2ccnc3[nH]c(-c4ccc5ccccc5c4)cc23)CC1 (stereo not shown) [MSK-A190]
10,29.2 nM,CC(N)C1CCC(C(=O)Cc2ccnc3[nH]c(-c4cccc(C(F)(F)F)c4)cc23)CC1 (stereo not shown) [MSK-A194]
11,20.6 nM,CC(N)C1CCC(C(=O)Cc2ccnc3[nH]c(-c4cccc(F)c4)cc23)CC1 (stereo not shown) [MSK-A191]
12,15.5 nM,"CC(N)C1CCC(C(=O)Nc2ccnc3[nH]c(-c4ccc(F)cc4)cc23)CC1 (single isomer, unassigned) [MSK-A184_peak 1, (1r,4r)-4-(1-aminoethyl)-N-(2-(4-fluorophenyl)-1H-pyrrolo[2,3-b]pyridin-4-yl)cyclohexanecarboxamide]"
13,38.9 nM,"CC(N)C1CCC(C(=O)Nc2ccnc3[nH]c(-c4ccc(F)cc4)cc23)CC1 (single isomer, unassigned) [MSK-A184_peak 2, (1r,4r)-4-(1-aminoethyl)-N-(2-(4-fluorophenyl)-1H-pyrrolo[2,3-b]pyridin-4-yl)cyclohexanecarboxamide]"
14,19.4 nM,COc1ccc(-c2cc3c(CC(=O)C4CCC(C(C)N)CC4)ccnc3[nH]2)cc1 (stereo not shown) [MSK-A188]

# Target: protein kinase CDK7 (Homo sapiens (Human), UniProt P50613)
# Experiment: Inhibition of protein kinase CDK7
# Format: biochemical
# Conditions: not given
# Sequence of protein kinase CDK7 (P50613 whole entry): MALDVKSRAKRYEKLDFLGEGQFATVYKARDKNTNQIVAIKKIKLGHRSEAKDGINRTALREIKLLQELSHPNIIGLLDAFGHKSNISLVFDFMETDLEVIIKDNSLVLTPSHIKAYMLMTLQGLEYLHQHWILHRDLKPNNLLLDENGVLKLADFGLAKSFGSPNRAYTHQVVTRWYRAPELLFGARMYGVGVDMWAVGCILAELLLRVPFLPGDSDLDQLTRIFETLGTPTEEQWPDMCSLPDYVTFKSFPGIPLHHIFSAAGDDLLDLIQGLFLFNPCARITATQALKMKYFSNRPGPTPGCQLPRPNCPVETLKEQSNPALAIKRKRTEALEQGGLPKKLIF
# Sequence of protein kinase CDK7 (P51946 whole entry partner): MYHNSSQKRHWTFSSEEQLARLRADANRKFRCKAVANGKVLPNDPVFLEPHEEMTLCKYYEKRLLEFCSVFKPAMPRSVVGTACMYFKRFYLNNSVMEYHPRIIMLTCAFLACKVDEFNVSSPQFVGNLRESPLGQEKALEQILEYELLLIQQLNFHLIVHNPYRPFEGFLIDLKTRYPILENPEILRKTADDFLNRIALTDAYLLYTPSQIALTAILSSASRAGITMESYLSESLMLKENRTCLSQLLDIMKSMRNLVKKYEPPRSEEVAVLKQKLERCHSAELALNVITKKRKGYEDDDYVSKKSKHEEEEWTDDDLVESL
# Sequence of protein kinase CDK7 (P51948 whole entry partner): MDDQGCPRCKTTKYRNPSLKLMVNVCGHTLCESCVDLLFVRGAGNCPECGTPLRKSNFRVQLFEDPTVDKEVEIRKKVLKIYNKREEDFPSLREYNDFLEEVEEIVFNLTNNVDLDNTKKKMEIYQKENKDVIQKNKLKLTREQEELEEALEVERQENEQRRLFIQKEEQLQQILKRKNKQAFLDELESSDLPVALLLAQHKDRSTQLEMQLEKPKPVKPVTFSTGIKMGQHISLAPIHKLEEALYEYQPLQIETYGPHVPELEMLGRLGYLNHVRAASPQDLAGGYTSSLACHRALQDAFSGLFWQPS
row,inhibition of protein kinase CDK7 (potency),SMILES
1,low nM potency,CC(N)C1CCC(C(=O)Cc2ccnc3[nH]c(-c4ccc(F)cc4)cc23)CC1 (stereo not shown) [MSK-A184]
2,low nM potency,CC(N)C1CCC(C(=O)Nc2ccnc3[nH]c(-c4ccsc4)cc23)CC1 (stereo not shown) [MSK-A176]
3,low nM potency,CC(N)C1CCC(C(=O)Cc2ccnc3[nH]c(-c4ccc(C#N)cc4)cc23)CC1 (stereo not shown) [MSK-A189]
4,low nM potency,CC(N)C1CCC(C(=O)Cc2ccnc3[nH]c(-c4cccc(F)c4)cc23)CC1 (stereo not shown) [MSK-A191]
